Converted amounts (≈) assume the structure as drawn.
Tested on: Oculimacula yallundae
Experiment: Resistance index, ratio of EC50 for sterol 14alpha-demethylation inhibitor-resistant Oculimacula yallundae TriR2 to EC50 for wild type Oculimacula yallundae TriS by mycelial growth inhibition assay
Format: functional
Settings: not given

Row | Compound | Ratio EC50
1 | CC1(C(=O)Nc2ccc(O)c(Cl)c2Cl)CCCCC1 [FENHEXAMID] | 1.2
2 | CC(C)(C)C(O)(CCc1ccc(Cl)cc1)Cn1cncn1 (configuration not stated) [TEBUCONAZOLE] | 30
3 | COc1cc(C)c(C(=O)c2c(OC)ccc(Br)c2C)c(OC)c1OC [METRAFENONE] | 1.3

Tested on: Oculimacula yallundae
Experiment: Resistance index, ratio of EC50 for sterol 14alpha-demethylation inhibitor-resistant Oculimacula yallundae TriR2 to EC50 for sterol 14alpha-demethylation inhibitor-resistant Oculimacula yallundae TriR1 by mycelial growth inhibition assay
Format: functional
Settings: not given

Row | Compound | Ratio EC50
4 | CC1(C(=O)Nc2ccc(O)c(Cl)c2Cl)CCCCC1 [FENHEXAMID] | 0.8
5 | CC(C)(C)C(O)(CCc1ccc(Cl)cc1)Cn1cncn1 (configuration not stated) [TEBUCONAZOLE] | 1.5
6 | COc1cc(C)c(C(=O)c2c(OC)ccc(Br)c2C)c(OC)c1OC [METRAFENONE] | 1.3

Tested on: Oculimacula yallundae
Experiment: Resistance index, ratio of EC50 for sterol 14alpha-demethylation inhibitor-resistant Oculimacula yallundae MDR to EC50 for wild type Oculimacula yallundae TriS by mycelial growth inhibition assay
Format: functional
Settings: not given

Row | Compound | Ratio EC50
7 | CC1(C(=O)Nc2ccc(O)c(Cl)c2Cl)CCCCC1 [FENHEXAMID] | 2.5
8 | CC(C)(C)C(O)(CCc1ccc(Cl)cc1)Cn1cncn1 (configuration not stated) [TEBUCONAZOLE] | 25
9 | COc1cc(C)c(C(=O)c2c(OC)ccc(Br)c2C)c(OC)c1OC [METRAFENONE] | 1.1

Tested on: Oculimacula yallundae
Experiment: Resistance index, ratio of EC50 for prochloraz-resistant Oculimacula yallundae isolate ProR1 to EC50 for prochloraz-susceptible Oculimacula yallundae isolate ProS by germ tube elongation inhibition assay
Format: functional
Settings: not given

Row | Compound | Ratio EC50
10 | C[Si](Cn1cncn1)(c1ccc(F)cc1)c1ccc(F)cc1 [FLUSILAZOLE] | 2.5
11 | CC(C)(C)C(O)(CCc1ccc(Cl)cc1)Cn1cncn1 (configuration not stated) [TEBUCONAZOLE] | 3

Tested on: Oculimacula yallundae
Experiment: Resistance index, ratio of EC50 for prochloraz-resistant Oculimacula yallundae isolate ProR2 to EC50 for prochloraz-susceptible Oculimacula yallundae isolate ProS by mycelial growth inhibition assay
Format: functional
Settings: not given

Row | Compound | Ratio EC50
12 | C[Si](Cn1cncn1)(c1ccc(F)cc1)c1ccc(F)cc1 [FLUSILAZOLE] | 6.2

Tested on: Oculimacula yallundae
Experiment: Resistance index, ratio of EC50 for prochloraz-resistant Oculimacula yallundae isolate ProR1 to EC50 for prochloraz-susceptible Oculimacula yallundae isolate ProS by mycelial growth inhibition assay
Format: functional
Settings: not given

Row | Compound | Ratio EC50
13 | C[Si](Cn1cncn1)(c1ccc(F)cc1)c1ccc(F)cc1 [FLUSILAZOLE] | 5

Tested on: Oculimacula yallundae
Experiment: Fungicidal activity against prochloraz-susceptible Oculimacula yallundae isolate ProS assessed as inhibition of germ tube elongation incubated at 19 degC in dark for 48 hr
Format: functional, organism-based
Settings: not given

Row | Compound | EC50 [µg/mL]
14 | C[Si](Cn1cncn1)(c1ccc(F)cc1)c1ccc(F)cc1 [FLUSILAZOLE] | 0.2 (≈ 0.634 µM)
15 | CC(C)(C)C(O)(CCc1ccc(Cl)cc1)Cn1cncn1 (configuration not stated) [TEBUCONAZOLE] | 0.5 (≈ 1.62 µM)

Tested on: Oculimacula yallundae
Experiment: Fungicidal activity against prochloraz-susceptible Oculimacula yallundae isolate ProS assessed as inhibition of mycelial growth in presence of 10 g glucose incubated at 19 degC in dark for 4 weeks
Format: functional, organism-based
Settings: 672 h

Row | Compound | EC50 [µg/mL]
16 | C[Si](Cn1cncn1)(c1ccc(F)cc1)c1ccc(F)cc1 [FLUSILAZOLE] | 0.4

Tested on: Oculimacula yallundae
Experiment: Resistance index, ratio of EC50 for sterol 14alpha-demethylation inhibitor-resistant Oculimacula yallundae MDR to EC50 for sterol 14alpha-demethylation inhibitor-resistant Oculimacula yallundae TriR1 by germ tube elongation assay
Format: functional
Settings: not given

Row | Compound | Ratio EC50
17 | CC1(C(=O)Nc2ccc(O)c(Cl)c2Cl)CCCCC1 [FENHEXAMID] | 28
18 | CC(C)(C)C(O)(CCc1ccc(Cl)cc1)Cn1cncn1 (configuration not stated) [TEBUCONAZOLE] | 4

Tested on: Oculimacula yallundae
Experiment: Resistance index, ratio of EC50 for sterol 14alpha-demethylation inhibitor-resistant Oculimacula yallundae MDR to EC50 for wild type Oculimacula yallundae TriS by germ tube elongation assay
Format: functional
Settings: not given

Row | Compound | Ratio EC50
19 | CC1(C(=O)Nc2ccc(O)c(Cl)c2Cl)CCCCC1 [FENHEXAMID] | 33
20 | CC(C)(C)C(O)(CCc1ccc(Cl)cc1)Cn1cncn1 (configuration not stated) [TEBUCONAZOLE] | 267

Tested on: Oculimacula yallundae
Experiment: Resistance index, ratio of EC50 for sterol 14alpha-demethylation inhibitor-resistant Oculimacula yallundae TriR2 to EC50 for sterol 14alpha-demethylation inhibitor-resistant Oculimacula yallundae TriR1 by germ tube elongation assay
Format: functional
Settings: not given

Row | Compound | Ratio EC50
21 | CC1(C(=O)Nc2ccc(O)c(Cl)c2Cl)CCCCC1 [FENHEXAMID] | 1
22 | CC(C)(C)C(O)(CCc1ccc(Cl)cc1)Cn1cncn1 (configuration not stated) [TEBUCONAZOLE] | 1.5

Tested on: Oculimacula yallundae
Experiment: Resistance index, ratio of EC50 for sterol 14alpha-demethylation inhibitor-resistant Oculimacula yallundae TriR2 to EC50 for wild type Oculimacula yallundae TriS by germ tube elongation assay
Format: functional
Settings: not given

Row | Compound | Ratio EC50
23 | CC1(C(=O)Nc2ccc(O)c(Cl)c2Cl)CCCCC1 [FENHEXAMID] | 1.2
24 | CC(C)(C)C(O)(CCc1ccc(Cl)cc1)Cn1cncn1 (configuration not stated) [TEBUCONAZOLE] | 100

Tested on: Oculimacula yallundae
Experiment: Resistance index, ratio of EC50 for sterol 14alpha-demethylation inhibitor-resistant Oculimacula yallundae TriR1 to EC50 for wild type Oculimacula yallundae TriS by germ tube elongation assay
Format: functional
Settings: not given

Row | Compound | Ratio EC50
25 | CC1(C(=O)Nc2ccc(O)c(Cl)c2Cl)CCCCC1 [FENHEXAMID] | 1.2
26 | CC(C)(C)C(O)(CCc1ccc(Cl)cc1)Cn1cncn1 (configuration not stated) [TEBUCONAZOLE] | 67

Tested on: Oculimacula yallundae
Experiment: Resistance index, ratio of EC50 for sterol 14alpha-demethylation inhibitor-resistant Oculimacula yallundae MDR to EC50 for sterol 14alpha-demethylation inhibitor-resistant Oculimacula yallundae TriR1 by mycelial growth inhibition assay
Format: functional
Settings: not given

Row | Compound | Ratio EC50
27 | CC1(C(=O)Nc2ccc(O)c(Cl)c2Cl)CCCCC1 [FENHEXAMID] | 1.7
28 | CC(C)(C)C(O)(CCc1ccc(Cl)cc1)Cn1cncn1 (configuration not stated) [TEBUCONAZOLE] | 1.3
29 | COc1cc(C)c(C(=O)c2c(OC)ccc(Br)c2C)c(OC)c1OC [METRAFENONE] | 1.1

Tested on: Oculimacula yallundae
Experiment: Resistance index, ratio of EC50 for sterol 14alpha-demethylation inhibitor-resistant Oculimacula yallundae TriR1 to EC50 for wild type Oculimacula yallundae TriS by mycelial growth inhibition assay
Format: functional
Settings: not given

Row | Compound | Ratio EC50
30 | CC1(C(=O)Nc2ccc(O)c(Cl)c2Cl)CCCCC1 [FENHEXAMID] | 1.5
31 | CC(C)(C)C(O)(CCc1ccc(Cl)cc1)Cn1cncn1 (configuration not stated) [TEBUCONAZOLE] | 20
32 | COc1cc(C)c(C(=O)c2c(OC)ccc(Br)c2C)c(OC)c1OC [METRAFENONE] | 1

Tested on: not listed separately
Experiment: Selectivity index, ratio of EC50 for Oculimacula acuformis to EC50 for Oculimacula yallundae in presence of 10 g glucose by mycelial growth inhibition assay
Format: functional
Settings: not given

Row | Compound | Ratio EC50
33 | CC1(C(=O)Nc2ccc(O)c(Cl)c2Cl)CCCCC1 [FENHEXAMID] | 0.8
34 | C[Si](Cn1cncn1)(c1ccc(F)cc1)c1ccc(F)cc1 [FLUSILAZOLE] | 6.7
35 | CC(C)(C)C(O)(CCc1ccc(Cl)cc1)Cn1cncn1 (configuration not stated) [TEBUCONAZOLE] | 20
36 | COc1cc(C)c(C(=O)c2c(OC)ccc(Br)c2C)c(OC)c1OC [METRAFENONE] | 0.1

Tested on: Oculimacula yallundae
Experiment: Fungicidal activity against Oculimacula yallundae assessed as inhibition of mycelial growth in presence of 10 g glucose incubated at 19 degC in dark for 4 weeks
Format: functional, organism-based
Settings: 672 h

Row | Compound | EC50 [µg/mL]
37 | CC1(C(=O)Nc2ccc(O)c(Cl)c2Cl)CCCCC1 [FENHEXAMID] | 0.4
38 | C[Si](Cn1cncn1)(c1ccc(F)cc1)c1ccc(F)cc1 [FLUSILAZOLE] | 0.06
39 | CC(C)(C)C(O)(CCc1ccc(Cl)cc1)Cn1cncn1 (configuration not stated) [TEBUCONAZOLE] | 0.2
40 | COc1cc(C)c(C(=O)c2c(OC)ccc(Br)c2C)c(OC)c1OC [METRAFENONE] | 0.8

Tested on: Oculimacula acuformis
Experiment: Fungicidal activity against Oculimacula acuformis assessed as inhibition of mycelial growth in presence of 10 g glucose incubated at 19 degC in dark for 4 weeks
Format: functional, organism-based
Settings: 672 h

Row | Compound | EC50 [µg/mL]
41 | CC1(C(=O)Nc2ccc(O)c(Cl)c2Cl)CCCCC1 [FENHEXAMID] | 0.32
42 | C[Si](Cn1cncn1)(c1ccc(F)cc1)c1ccc(F)cc1 [FLUSILAZOLE] | 0.4
43 | CC(C)(C)C(O)(CCc1ccc(Cl)cc1)Cn1cncn1 (configuration not stated) [TEBUCONAZOLE] | 4
44 | COc1cc(C)c(C(=O)c2c(OC)ccc(Br)c2C)c(OC)c1OC [METRAFENONE] | 0.08

Tested on: not listed separately
Experiment: Selectivity index, ratio of EC50 for Oculimacula acuformis to EC50 for Oculimacula yallundae by germ tube elongation inhibition assay
Format: functional
Settings: not given

Row | Compound | Ratio EC50
45 | CC1(C(=O)Nc2ccc(O)c(Cl)c2Cl)CCCCC1 [FENHEXAMID] | 0.8
46 | C[Si](Cn1cncn1)(c1ccc(F)cc1)c1ccc(F)cc1 [FLUSILAZOLE] | 25
47 | CC(C)(C)C(O)(CCc1ccc(Cl)cc1)Cn1cncn1 (configuration not stated) [TEBUCONAZOLE] | 17

Tested on: Oculimacula yallundae
Experiment: Fungicidal activity against Oculimacula yallundae assessed as inhibition of germ tube elongation incubated at 19 degC in dark for 48 hr
Format: functional, organism-based
Settings: not given

Row | Compound | EC50 [µg/mL]
48 | CC1(C(=O)Nc2ccc(O)c(Cl)c2Cl)CCCCC1 [FENHEXAMID] | 0.06 (≈ 0.199 µM)
49 | C[Si](Cn1cncn1)(c1ccc(F)cc1)c1ccc(F)cc1 [FLUSILAZOLE] | 0.008 (≈ 0.0254 µM)
50 | CC(C)(C)C(O)(CCc1ccc(Cl)cc1)Cn1cncn1 (configuration not stated) [TEBUCONAZOLE] | 0.03 (≈ 0.0975 µM)
51 | COc1cc(C)c(C(=O)c2c(OC)ccc(Br)c2C)c(OC)c1OC [METRAFENONE] | > 25

Tested on: Oculimacula acuformis
Experiment: Fungicidal activity against Oculimacula acuformis assessed as inhibition of germ tube elongation incubated at 19 degC in dark for 48 hr
Format: functional, organism-based
Settings: not given

Row | Compound | EC50 [µg/mL]
52 | CC1(C(=O)Nc2ccc(O)c(Cl)c2Cl)CCCCC1 [FENHEXAMID] | 0.05 (≈ 0.165 µM)
53 | C[Si](Cn1cncn1)(c1ccc(F)cc1)c1ccc(F)cc1 [FLUSILAZOLE] | 0.2 (≈ 0.634 µM)
54 | CC(C)(C)C(O)(CCc1ccc(Cl)cc1)Cn1cncn1 (configuration not stated) [TEBUCONAZOLE] | 0.5 (≈ 1.62 µM)
55 | COc1cc(C)c(C(=O)c2c(OC)ccc(Br)c2C)c(OC)c1OC [METRAFENONE] | > 25

Tested on: Oculimacula yallundae
Experiment: Resistance index, ratio of EC50 for prochloraz-resistant Oculimacula yallundae isolate ProR2 to EC50 for prochloraz-susceptible Oculimacula yallundae isolate ProS by germ tube elongation inhibition assay
Format: functional
Settings: not given

Row | Compound | Ratio EC50
56 | C[Si](Cn1cncn1)(c1ccc(F)cc1)c1ccc(F)cc1 [FLUSILAZOLE] | 5
57 | CC(C)(C)C(O)(CCc1ccc(Cl)cc1)Cn1cncn1 (configuration not stated) [TEBUCONAZOLE] | 5
